Test results: the RepoRT retention time repository (doi:10.1016/j.jchromb.2020.122105)

Assays:
Settings in all cases: stereoisomer not certain
[1] = RP, Waters CORTECS T3, 100 × 2.1 mm, 2.7 µm, 0.3 mL/min, estimated dead time 0.73 min; A: water + 0.1% formic acid, pH 3; B: methanol + 0.1% formic acid, pH 3; gradient (min/%B) 0/0 5/0 25/100 30/100 30.1/0 35/0
[2] = RP, Waters CORTECS T3, 100 × 2.1 mm, 2.7 µm, 0.2 mL/min, estimated dead time 1.1 min; A: water + 0.1% formic acid, pH 3; B: methanol + 0.1% formic acid, pH 3; gradient (min/%B) 0/0 1/0 6/5 30/100 35/100 35.1/0 40/0
[3] = RP, Waters CORTECS T3, 100 × 2.1 mm, 2.7 µm, 0.3 mL/min, estimated dead time 0.73 min; A: water + 0.1% formic acid, pH 3; B: methanol + 0.1% formic acid, pH 3; gradient (min/%B) 0/0 1/0 6/5 30/100 35/100 35.1/0 40/0
[4] = RP, Waters CORTECS T3, 100 × 2.1 mm, 2.7 µm, 0.2 mL/min, estimated dead time 1.1 min; A: water + 0.1% formic acid, pH 3; B: methanol + 0.1% formic acid, pH 3; gradient (min/%B) 0/5 5/5 25/95 25.1/100 35/100 35.1/5 45/5
[5] = RP, Waters CORTECS T3, 100 × 2.1 mm, 2.7 µm, 0.15 mL/min, estimated dead time 1.5 min; A: water + 0.1% formic acid, pH 3; B: methanol + 0.1% formic acid, pH 3; gradient (min/%B) 0/5 5/5 25/95 25.1/100 35/100 35.1/5 45/5
[6] = RP, Waters ACQUITY UPLC BEH C18, 100 × 2.1 mm, 1.7 µm, 0.2 mL/min, estimated dead time 1.1 min; A: water + 0.1% formic acid, pH 3; B: methanol + 0.1% formic acid, pH 3; gradient (min/%B) 0/5 5/5 25/100 30/100 30.1/5 35/5
[7] = RP, Waters CORTECS T3, 100 × 2.1 mm, 2.7 µm, 0.25 mL/min, estimated dead time 0.88 min; A: water + 0.1% formic acid, pH 3; B: methanol + 0.1% formic acid, pH 3; gradient (min/%B) 0/5 5/5 25/95 25.1/100 35/100 35.1/5 45/5
[8] = RP, Waters ACQUITY UPLC BEH C18, 100 × 2.1 mm, 1.7 µm, 0.1 mL/min, estimated dead time 2.2 min; A: water + 0.1% formic acid, pH 3; B: methanol + 0.1% formic acid, pH 3; gradient (min/%B) 0/5 5/5 25/95 25.1/100 35/100 35.1/5 45/5
[9] = RP, Waters ACQUITY UPLC BEH C18, 100 × 2.1 mm, 1.7 µm, 0.2 mL/min, estimated dead time 1.1 min; A: water + 0.025% formic acid + 20 mM ammonium acetate + 0.055% ammonium hydroxide, pH 7; B: methanol; gradient (min/%B) 0/5 5/5 25/100 30/100 30.1/5 35/5
[10] = HILIC, Waters XBridge BEH Amide, 100 × 2.1 mm, 2.5 µm, 0.5 mL/min, estimated dead time 0.44 min; A: water + 0.1% acetic acid + 10 mM ammonium acetate, pH 4; B: 5% water + 95% acetonitrile + 0.1% acetic acid + 10 mM ammonium acetate, pH 4; gradient (min/%B) 0/95 5/95 20/57 25/57 30/95 40/95
[11] = HILIC, Merck SeQuant ZIC-HILIC, 150 × 2.1 mm, 5 µm, 0.75 mL/min, estimated dead time 0.44 min; A: water + 10 mM ammonium formate, pH 6; B: 5% water + 95% acetonitrile + 10 mM ammonium formate, pH 6; gradient (min/%B) 0/95 5/95 20/57 25/57 30/95 40/95
[12] = RP, Waters CORTECS T3, 100 × 2.1 mm, 2.7 µm, 0.3 mL/min, estimated dead time 0.73 min; A: water + 0.1% formic acid, pH 3; B: methanol + 0.1% formic acid, pH 3; gradient (min/%B) 0/5 5/5 25/100 30/100 30.1/5 35/5
[13] = RP, Waters CORTECS T3, 100 × 2.1 mm, 2.7 µm, 0.3 mL/min, estimated dead time 0.73 min; A: water + 0.1% formic acid, pH 3; B: methanol + 0.1% formic acid, pH 3; gradient (min/%B) 0/0 5/0 25/100 30/100 30.1/0 35/0; remark: listed apart in the source
[14] = RP, Waters CORTECS T3, 100 × 2.1 mm, 2.7 µm, 0.2 mL/min, estimated dead time 1.1 min; A: water + 0.1% formic acid, pH 3; B: methanol + 0.1% formic acid, pH 3; gradient (min/%B) 0/0 1/0 6/5 30/100 35/100 35.1/0 40/0; remark: listed apart in the source
[15] = RP, Waters CORTECS T3, 100 × 2.1 mm, 2.7 µm, 0.15 mL/min, estimated dead time 1.5 min; A: water + 0.1% formic acid, pH 3; B: methanol + 0.1% formic acid, pH 3; gradient (min/%B) 0/0 1/0 6/5 30/100 35/100 35.1/0 40/0
[16] = RP, Waters CORTECS T3, 100 × 2.1 mm, 2.7 µm, 0.3 mL/min, estimated dead time 0.73 min; A: water + 0.1% formic acid, pH 3; B: methanol + 0.1% formic acid, pH 3; gradient (min/%B) 0/0 1/0 6/5 30/100 35/100 35.1/0 40/0; remark: listed apart in the source
[17] = RP, Waters CORTECS T3, 100 × 2.1 mm, 2.7 µm, 0.25 mL/min, estimated dead time 0.88 min; A: water + 0.1% formic acid, pH 3; B: methanol + 0.1% formic acid, pH 3; gradient (min/%B) 0/0 1/0 6/5 30/100 35/100 35.1/0 40/0
[18] = RP, Waters CORTECS T3, 100 × 2.1 mm, 2.7 µm, 0.3 mL/min, estimated dead time 0.73 min; A: water + 0.1% formic acid, pH 3; B: methanol + 0.1% formic acid, pH 3; gradient (min/%B) 0/5 5/5 25/95 25.1/100 35/100 35.1/5 45/5
[19] = RP, Waters ACQUITY UPLC BEH C18, 100 × 2.1 mm, 1.7 µm, 0.1 mL/min, estimated dead time 2.2 min; A: water + 0.1% formic acid, pH 3; B: methanol + 0.1% formic acid, pH 3; gradient (min/%B) 0/5 5/5 25/100 30/100 30.1/5 35/5
[20] = HILIC, Merck SeQuant ZIC-HILIC, 150 × 2.1 mm, 5 µm, 0.75 mL/min, estimated dead time 0.44 min; A: water + 0.1% acetic acid + 10 mM ammonium acetate, pH 4; B: 5% water + 95% acetonitrile + 0.1% acetic acid + 10 mM ammonium acetate, pH 4; gradient (min/%B) 0/95 5/95 20/57 25/57 30/95 40/95
[21] = RP, Waters CORTECS T3, 100 × 2.1 mm, 2.7 µm, 0.1 mL/min, estimated dead time 2.2 min; A: water + 0.1% formic acid, pH 3; B: methanol + 0.1% formic acid, pH 3; gradient (min/%B) 0/5 5/5 25/95 25.1/100 35/100 35.1/5 45/5
[22] = RP, Waters CORTECS T3, 100 × 2.1 mm, 2.7 µm, 0.1 mL/min, estimated dead time 2.2 min; A: water + 0.1% formic acid, pH 3; B: methanol + 0.1% formic acid, pH 3; gradient (min/%B) 0/0 1/0 6/5 30/100 35/100 35.1/0 40/0

| Structure (SMILES) | LC retention time [1] [min] | LC retention time [2] [min] | LC retention time [3] [min] | LC retention time [4] [min] | LC retention time [5] [min] | LC retention time [6] [min] | LC retention time [7] [min] | LC retention time [8] [min] | LC retention time [9] [min] | LC retention time [10] [min] | LC retention time [11] [min] | LC retention time [20] [min] | further results |
| --- | --- | --- | --- | --- | --- | --- | --- | --- | --- | --- | --- | --- | --- |
| CC(CCC(=O)O)C1CCC2C3C(O)CC4CC(O)CCC4(C)C3CC(O)C12C (stereo unspecified) [CHOLATE] | 21.9 | – | 25.4 | 29.8 | 24.7 | 22.9 | 22.9 | – | 19.6 | – | – | – | – |
| CC(O)(CC(=O)O)C(=O)O (stereo unspecified) [CITRAMALATE] | 2.32 | 3.28 | 2.32 | 6.38 | 3.28 | 2.7 | 1.99 | 5.3 | – | – | 12.8 | 12.2 | – |
| Nc1ccn(C2OC(COP(=O)(O)OP(=O)(O)O)C(O)C2O)c(=O)n1 (stereo unspecified) [CYTIDINE 5'-DIPHOSPHATE] | 0.89 | 1.35 | – | – | 1.98 | – | – | – | – | – | – | – | – |
| CCOC(OCC)C(O)COP(=O)(O)O (stereo unspecified) [GLYCERALDEHYDE 3-PHOSPHATE DIETHYL ACETAL] | – | 8.23 | 6.25 | 12.2 | 7.38 | – | – | – | 1.41 | – | – | – | – |
| O=C(O)CCCCCCCCCCCO [OMEGA-HYDROXYDODECANOIC ACID] | – | – | 22.4 | – | 22.2 | – | 20.4 | – | 16.3 | 1.1 | – | – | – |

Further lines, with some results ahead:

| LC retention time [1] [min] | LC retention time [2] [min] | LC retention time [3] [min] | LC retention time [4] [min] | LC retention time [5] [min] | LC retention time [6] [min] | LC retention time [7] [min] | LC retention time [8] [min] | LC retention time [9] [min] | LC retention time [10] [min] | LC retention time [11] [min] | LC retention time [20] [min] | Structure (SMILES) | further results |
| --- | --- | --- | --- | --- | --- | --- | --- | --- | --- | --- | --- | --- | --- |
| 9.23 | 10.6 | 8.96 | 14.3 | 10.4 | 9.48 | 7.94 | 13.3 | 2.97 | 8.06 | – | – | CSCCC(NC(C)=O)C(=O)O (racemic) [N-ACETYL-DL-METHIONINE] | – |
| 0.89 | 1.35 | 0.92 | 2.67 | – | 1.38 | – | 2.67 | – | – | 14.5 | – | Nc1ccn(C2CC(O)C(COP(=O)(O)O)O2)c(=O)n1 (stereo unspecified) [2'-DEOXYCYTIDINE 5'-MONOPHOSPHATE] | – |
| – | 1.42 | – | 2.75 | 1.78 | 1.38 | – | 2.7 | – | – | – | – | N[C@@H](Cc1ccc(O)c(O)c1)C(=O)O [3,4-DIHYDROXY-L-PHENYLALANINE] | LC retention time [12]: 0.93 min; LC retention time [13]: 0.93 min; LC retention time [14]: 1.38 min; LC retention time [15]: 1.87 min; LC retention time [16]: 0.92 min; LC retention time [17]: 1.13 min; LC retention time [18]: 0.9 min; LC retention time [19]: 2.74 min |
| – | 15.6 | – | 19.1 | 15.1 | 14.3 | – | 17.2 | 1.78 | 2.26 | 2.09 | 3.23 | COc1cc(C=CC(=O)O)ccc1O [FERULATE] | LC retention time [12]: 12.3 min; LC retention time [15]: 16.9 min; LC retention time [16]: 14.1 min; LC retention time [17]: 14.8 min; LC retention time [21]: 17.2 min |
| 11.4 | 13.2 | 12.2 | 15.9 | 12.6 | 11.2 | 11.1 | – | 1.36 | – | 14.9 | 14.4 | Nc1nc2ncc(CNc3ccc(C(=O)NC(CCC(=O)O)C(=O)O)cc3)nc2c(=O)[nH]1 (stereo unspecified) [FOLIC ACID] | LC retention time [12]: 10.5 min; LC retention time [13]: 11.3 min; LC retention time [14]: 13.2 min; LC retention time [22]: 11.7 min; LC retention time [16]: 12.2 min; LC retention time [17]: 12.6 min; LC retention time [18]: 10.7 min; LC retention time [19]: 13.8 min |
| 0.97 | 1.42 | 0.96 | 2.78 | 1.83 | 1.84 | 1.13 | – | 1.36 | 13.5 | 14 | 13.5 | CC(=O)N[C@@H](CC(=O)O)C(=O)O [N-ACETYL-L-ASPARTIC ACID] | – |
| – | – | – | – | 1.83 | – | – | – | – | 3.95 | – | 4.54 | O=c1ccn(C2OC(CO)C(O)C2O)c(=O)[nH]1 (stereo unspecified) [URIDINE] | – |
